Patent US20150344444A1, “BET-PROTEIN-INHIBITING DIHYDROXYQUINOXALINONES” (BAYER PHARMA AKTIENGESELLSCHAFT, priority 2012, published 2015)

Assays:
[1] = system: MOLM-13 cells; experiment: MOLM-13 cell proliferation assay (alamarBlue); type: cell-based; conditions: inhibition of cell proliferation, 96 hours, human AML cell line
In short: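 MOLM-13 AML cells (4000/well, RPMI1640 + 10% FCS) treated 96 h at 37 °C with 1E-5 to 1E-8 M compound. Proliferation by alamarBlue fluorescence (ex 530/em 590), pre-treatment reading subtracted; IC50 versus buffer-treated cells.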

[2] = biological target: T1, BRD4 Bromo Domain 1 [BRD4(1)] (Homo sapiens, UniProt O60885); experiment: BRD4(1)/acetylated peptide H4 binding assay (TR-FRET); conditions: inhibition of interaction between His6-tagged BRD4(1) (amino acids 67-152) and acetylated histone H4 peptide
T1 construct: N-terminally His6-tagged BRD4(1) (amino acids 67-152); made in house; host or cells: E. coli
In short: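 His6-BRD4(1) (aa 67-152, E. coli), 10 nM final, with biotinylated tetra-acetylated H4 peptide in HEPES pH 7.5 buffer; 11 compound concentrations 0.1 nM-20 μM in duplicate, 10 min preincubation, then 1 h at 22 °C and ≥3 h at 4 °C. TR-FRET 665/620 ratio; IC50 by 4-parameter fit.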

[3] = system: MOLP-8 cells; experiment: MOLP-8 cell proliferation assay (alamarBlue); type: cell-based; conditions: inhibition of cell proliferation, 120 hours, human multiple myeloma cell line
In short: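 MOLP-8 myeloma cells in RPMI1640/20% FCS were treated with compound from 1E-5 to 1E-8 M for 120 h at 37 °C. Proliferation was measured by alamarBlue fluorescence (ex 530, em 590 nm), and the reading taken before dosing was subtracted. IC50 is relative to buffer-treated cells.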

IC50 [1] [nM]	IC50 [2] [nM]	SMILES	IC50 [3] [nM]
719	145	C[C@@H]1C(=O)N(C)c2ccc(Nc3ccc(S(=O)(=O)N(C)C)cc3)cc2N1C1CCOCC1 [Example 46, 4-{[(3R)-1,3-dimethyl-2-oxo-4-(tetrahydro-2H-pyran-4-yl)-1,2,3,4-tetrahydroquinoxalin-6-yl]amino}-N,N-dimethylbenzenesulphonamide]	365
407	95	C[C@@H]1C(=O)N(C)c2ccc(Nc3ccc(S(=O)(=O)N4CCOCC4)cc3)cc2N1C1CCOCC1 [Example 47, (3R)-1,3-dimethyl-6-{[4-(morpholin-4-ylsulphonyl)phenyl]amino}-4-(tetrahydro-2H-pyran-4-yl)-3,4-dihydroquinoxalin-2(1H)-one]	496
1250	237	C[C@@H]1C(=O)N(C)c2ccc(Nc3ccc(S(=O)(=O)N4CCN(C)CC4)cc3)cc2N1C1CCOCC1 [Example 48, (3R)-1,3-dimethyl-6-({4-[(4-methylpiperazin-1-yl)sulphonyl]phenyl}amino)-4-(tetrahydro-2H-pyran-4-yl)-3,4-dihydroquinoxalin-2(1H)-one]	803

The next lines start with the compound.

SMILES	IC50 [1] [nM]	IC50 [2] [nM]	IC50 [3] [nM]
COc1cc(C(=O)NC2CCN(C)CC2)ccc1Nc1ccc2c(c1)N(C1CCOCC1)[C@H](C)C(=O)N2C [Example 36, 4-{[(3R)-1,3-dimethyl-2-oxo-4-(tetrahydro-2H-pyran-4-yl)-1,2,3,4-tetrahydroquinoxalin-6-yl]amino}-3-methoxy-N-(1-methylpiperidin-4-yl)benzamide]	1080	482	675
COc1cc(C(=O)NC2CCC(N3CCN(CC4CC4)CC3)CC2)ccc1Nc1ccc2c(c1)N(C1CCOCC1)[C@H](C)C(=O)N2C (stereo partly drawn) [Example 37, N-{4-[4-(cyclopropylmethyl)piperazin-1-yl]cyclohexyl}-4-{[(3R)-1,3-dimethyl-2-oxo-4-(tetrahydro-2H-pyran-4-yl)-1,2,3,4-tetrahydroquinoxalin-6-yl]amino}-3-methoxybenzamide]	1080	422	479
COc1cc(C(=O)N2CCN(C)CC2)ccc1Nc1ccc2c(c1)N(C1CCOCC1)[C@H](C)C(=O)N2C [Example 38, (3R)-6-({2-methoxy-4-[(4-methylpiperazin-1-yl)carbonyl]phenyl}amino)-1,3-dimethyl-4-(tetrahydro-2H-pyran-4-yl)-3,4-dihydroquinoxalin-2(1H)-one]	1790	272	758
COc1ccc(CN2c3cc(Nc4ccc(S(=O)(=O)N(C)C)cc4)ccc3N(C)C(=O)[C@H]2C)cc1 [Example 41, 4-{[(3R)-4-(4-methoxybenzyl)-1,3-dimethyl-2-oxo-1,2,3,4-tetrahydroquinoxalin-6-yl]amino}-N,N-dimethylbenzenesulphonamide]	145	183	77
COc1ccc(CN2c3cc(Nc4ccc(S(=O)(=O)N5CCOCC5)cc4)ccc3N(C)C(=O)[C@H]2C)cc1 [Example 42, (3R)-4-(4-methoxybenzyl)-1,3-dimethyl-6-{[4-(morpholin-4-ylsulphonyl)phenyl]amino}-3,4-dihydroquinoxalin-2(1H)-one]	149	120	61
COc1ccc(CN2c3cc(Nc4ccc(S(=O)(=O)N5CCN(C)CC5)cc4)ccc3N(C)C(=O)[C@H]2C)cc1 [Example 43, (3R)-4-(4-methoxybenzyl)-1,3-dimethyl-6-({4-[(4-methylpiperazin-1-yl)sulphonyl]phenyl}amino)-3,4-dihydroquinoxalin-2(1H)-one]	145	103	35
COc1ccc(CN2c3cc(Nc4ccc(S(=O)(=O)N5CCN(C(C)C)CC5)cc4)ccc3N(C)C(=O)[C@H]2C)cc1 [Example 44, (3R)-4-(4-methoxybenzyl)-1,3-dimethyl-6-[(4-{[4-(propan-2-yl)piperazin-1-yl]sulphonyl}phenyl)amino]-3,4-dihydroquinoxalin-2(1H)-one]	340	55	101
C[C@@H]1C(=O)N(C)c2ccc(Nc3ccc(S(=O)(=O)N(C)C)cc3)cc2N1C1CCCCCC1 [Example 45, 4-{[(3R)-4-cycloheptyl-1,3-dimethyl-2-oxo-1,2,3,4-tetrahydroquinoxalin-6-yl]amino}-N,N-dimethylbenzenesulphonamide]	1340	264	1100
